Numbered stars: 1 amine (or outer) side, 2 acyl side, 3 side chain; on linkers, the order of the positions; unused ones are H or OH. Bridge positions count the residues as written; N and C are the ends. Square brackets hold non-standard residues; d marks the D form. Triazole bridges read from a SMILES are 1,4-linked. Peptide text beside a SMILES is read from it. * marks the point of attachment. Ala(piperidin-4-yl) = O=C([C@H](CC1CCN([*:3])CC1)N[*:1])[*:2]; DOTA = O=C(O)CN1CCN(CC(=O)O)CCN(CC(=O)*)CCN(CC(=O)O)CC1; 1Nal = N[C@@H](Cc1cccc2ccccc12)C(=O)O; 2Nal = N[C@@H](Cc1ccc2ccccc2c1)C(=O)O; Aha = [N-]=[N+]=NCC[C@H](N)C(=O)O; tBuAla = CC(C)(C)C[C@H](N)C(=O)O; AllylGly = C=CC[C@H](N)C(=O)O; αMeP = C[C@@]1(C(=O)O)CCCN1; Pra = C#CC[C@H](N)C(=O)O Some results are limits rather than exact numbers.

The values that follow come from patent US20250186541A1, “DLL3 TARGETING PEPTIDES AND CONSTRUCTS THEREOF” (MARIANA ONCOLOGY INC., priority 2023, published 2025).

For this test, the target named is T1, human DLL3 (Homo sapiens, UniProt Q9NYJ7).
T1 construct: biotin (biotinylated)
T1 sequence (Q9NYJ7 27-618): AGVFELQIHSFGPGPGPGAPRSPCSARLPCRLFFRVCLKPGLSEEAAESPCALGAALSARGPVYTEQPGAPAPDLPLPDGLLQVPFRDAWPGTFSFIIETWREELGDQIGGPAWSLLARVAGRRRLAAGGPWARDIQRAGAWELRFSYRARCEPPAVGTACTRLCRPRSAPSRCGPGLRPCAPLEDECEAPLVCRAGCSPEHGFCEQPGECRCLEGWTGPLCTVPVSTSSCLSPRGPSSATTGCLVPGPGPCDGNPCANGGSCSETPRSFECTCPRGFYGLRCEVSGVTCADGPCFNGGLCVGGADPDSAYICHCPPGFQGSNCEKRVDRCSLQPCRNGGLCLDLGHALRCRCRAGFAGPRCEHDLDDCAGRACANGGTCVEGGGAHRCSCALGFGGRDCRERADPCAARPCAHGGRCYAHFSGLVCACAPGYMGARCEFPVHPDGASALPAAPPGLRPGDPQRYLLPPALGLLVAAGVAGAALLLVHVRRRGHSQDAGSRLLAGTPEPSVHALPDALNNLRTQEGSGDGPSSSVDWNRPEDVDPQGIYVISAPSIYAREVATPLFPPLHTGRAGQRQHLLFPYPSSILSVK
Nature of the test: Affinity determination by Surface Plasmon Resonance (SPR), Biacore, 1:1 binding model. The note with it: biotinylated human DLL3 on streptavidin chip, 25° C.; NB = nonbinding. As for the experimental part:
Example 3. Binding Affinity of Targeting Moieties Polypeptides to DLL3 Affinity Determination by Surface Plasmon Resonance (SPR)
SPR studies were performed on the compounds disclosed herein using the following protocol. […] Biotinylated target ligand human DLL3 was immobilized on a streptavidin sensor chip. A reference surface was set up for nonspecific binding and refractive index changes. For analysis of the kinetics of interactions, varying concentrations of samples were injected at a flow rate of 100 μL/min using running buffer containing 20 mM phosphate buffer with 2.7 mM KCl, 137 mM NaCl, 0.05% Surfactant P20 and 2% DMSO. Sensorgram curves were fitted with 1:1 binding model, and affinity and kinetic parameters were obtained using Biacore Insight evaluation 4.0. software.
For the compound `CC(=O)N[C@H](C)C(=O)N[C@@H](CO)C(=O)N[C@@H](CC(=O)O)C(=O)N[C@H]1Cc2cn(nn2)CC[C@@H](C(=O)N2CCC[C@@]2(C)C(=O)N[C@@H](Cc2ccccc2)C(=O)N[C@@H](CC(=O)O)C(=O)N[C@H](CCCCNC(=O)CN2CCN(CC(=O)O)CCN(CC(=O)O)CCN(CC(=O)O)CC2)C(N)=O)NC(=O)[C@H](CC(N)=O)NC(=O)[C@H](Cc2ccc3ccccc3c2)NC(=O)[C@H](CCC(N)=O)NC(=O)[C@H](CC(C)(C)C)NC(=O)[C@H](Cc2cccc3ccccc23)NC1=O` [Cpd #163, Ac-(D-Ala)-S-D-[Pra(5)]-(1Nal)-(t-Bu-Ala)-Q-(2Nal)-N-[DabN3(5)]-(aMe-P)-F -D-D-Lys(DOTA)-CONH2] (Ac-[dA]SD[Pra][1Nal][tBuAla]Q[2Nal]N[Aha][αMeP]FD[dK](DOTA)-NH2; triazole 4-10), the equilibrium dissociation constant (Kd) was more than 300 nM.
`CC(=O)N[C@H](C)C(=O)N[C@@H](CO)C(=O)N[C@@H](CC(=O)O)C(=O)N[C@H]1Cc2cnnn2CC[C@@H](C(=O)N2CCC[C@@]2(C)C(=O)N[C@@H](Cc2ccccc2)C(=O)N[C@@H](CC(=O)O)C(=O)N[C@H](CCCCNC(=O)CN2CCN(CC(=O)O)CCN(CC(=O)O)CCN(CC(=O)O)CC2)C(N)=O)NC(=O)[C@H](CC(N)=O)NC(=O)[C@H](Cc2ccc3ccccc3c2)NC(=O)[C@H](CCC(N)=O)NC(=O)[C@H](CC(C)(C)C)NC(=O)[C@H](Cc2cccc3ccccc23)NC1=O` [Cpd #164, Ac-(D-Ala)-S-D-[Pra(6)]-(1Nal)-(t-Bu-Ala)-Q-(2Nal)-N-[DabN3(6)]-(aMe-P)-F -D-D-Lys(DOTA)-CONH2] came in with a Kd of more than 30 nM.
In the case of `C[C@@H](NC(=O)CN1CCN(CC(=O)O)CCN(CC(=O)O)CCN(CC(=O)O)CC1)C(=O)N[C@@H](CO)C(=O)N[C@@H](CC(=O)O)C(=O)N[C@H]1C/C=C/C[C@@H](C(=O)N2CCC[C@@]2(C)C(=O)N[C@@H](Cc2ccccc2)C(=O)N[C@@H](CC(=O)O)C(N)=O)NC(=O)[C@H](CC(N)=O)NC(=O)[C@H](Cc2ccc3ccccc3c2)NC(=O)[C@H](CC2CCNCC2)NC(=O)[C@H](CC(C)(C)C)NC(=O)[C@H](Cc2cccc3ccccc23)NC1=O` [Cpd #196, DOTA-(D-Ala)-S-D-AllyG(4)-(1Nal)-(t-Bu-Ala)-[3-(4-piperidinyl)-Ala]-(2Nal)-N-AllyG(4)-(aMe-P)-F-D-CONH2] ({DOTA}-[dA]SD[AllylGly][1Nal][tBuAla][Ala(piperidin-4-yl)][2Nal]N[AllylGly][αMeP]FD-NH2; staple (E) 4-10), the Kd was 0.52 nM.
In turn, `CC(=O)N[C@H](C)C(=O)N[C@@H](CO)C(=O)N[C@@](C)(CC(=O)O)C(=O)N[C@H]1CCCC[C@@H](C(=O)N2CCC[C@@]2(C)C(=O)N[C@@H](Cc2ccccc2)C(=O)N[C@@H](CC(=O)O)C(N)=O)NC(=O)[C@H](CC(N)=O)NC(=O)[C@H](Cc2ccc3ccccc3c2)NC(=O)[C@H](Cc2ccc(CNC(=O)CN3CCN(CC(=O)O)CCN(CC(=O)O)CCN(CC(=O)O)CC3)cc2)NC(=O)[C@H](CC(C)(C)C)NC(=O)[C@H](Cc2cccc3ccccc23)NC1=O` [Cpd #205, Ac-(D-Ala)-S-(aMe-Asp)-AllyG(4)*-(1Nal)-(t-Bu-Ala)-[PAF(DOTA)]-(2Nal)-N-AllyG(4)*-(aMe-P)-F-D-CONH2] yielded a Kd of 0.082 nM.
With `CC(=O)N[C@@H](CO)C(=O)N[C@@H](CC(=O)O)C(=O)N[C@H]1CSSC[C@@H](C(=O)N2CCC[C@H]2C(=O)N[C@@H](Cc2ccccc2)C(=O)N[C@@H](CC(=O)O)C(N)=O)NC(=O)[C@H](CC(N)=O)NC(=O)[C@H](Cc2c[nH]c3ccccc23)NC(=O)[C@H](CCC(N)=O)NC(=O)[C@H](CC(C)C)NC(=O)[C@H](Cc2c[nH]c3ccccc23)NC1=O` [compound 5, Ac-S-D-C(3)-W-L-Q-W-N-C(3)-P-F-D-CONH2] (Ac-SDCWLQWNCPFD-NH2; disulfide 3-9), the Kd is more than 100 nM.
In turn, `CSCC[C@H](NC(C)=O)C(=O)N[C@@H](CO)C(=O)N[C@@H](CC(=O)O)C(=O)N[C@H]1CSSC[C@@H](C(=O)N2CCC[C@H]2C(=O)N[C@@H](Cc2ccccc2)C(=O)N[C@@H](CC(=O)O)C(N)=O)NC(=O)[C@H](CC(N)=O)NC(=O)[C@H](Cc2c[nH]c3ccccc23)NC(=O)[C@H](CCC(N)=O)NC(=O)[C@H](CC(C)C)NC(=O)[C@@H](C)NC1=O` [compound 11, Ac-M-S-D-C(3)-(D-Ala)-L-Q-W-N-C(3)-P-F-D-CONH2] (Ac-MSDC[dA]LQWNCPFD-NH2; disulfide 4-10) showed an equilibrium dissociation constant (Kd) of more than 100 nM.
`CSCC[C@H](NC(C)=O)C(=O)N[C@@H](CO)C(=O)N[C@@H](CC(=O)O)C(=O)N[C@H]1CSSC[C@@H](C(=O)N2CCC[C@H]2C(=O)N[C@@H](Cc2ccccc2)C(=O)N[C@@H](CC(=O)O)C(N)=O)NC(=O)[C@H](CC(N)=O)NC(=O)[C@H](Cc2c[nH]c3ccccc23)NC(=O)[C@@H](C)NC(=O)[C@H](CC(C)C)NC(=O)[C@H](Cc2c[nH]c3ccccc23)NC1=O` [compound 13, Ac-M-S-D-C(3)-W-L-(D-Ala)-W-N-C(3)-P-F-D-CONH2] (Ac-MSDCWL[dA]WNCPFD-NH2; disulfide 4-10) gave a Kd of more than 100 nM.
The result for `CSCC[C@H](NC(C)=O)C(=O)N[C@@H](CO)C(=O)N[C@@H](CC(=O)O)C(=O)N[C@H]1CSSC[C@@H](C(=O)N2CCC[C@H]2C(=O)N[C@@H](Cc2ccccc2)C(=O)N[C@@H](CC(=O)O)C(N)=O)NC(=O)[C@@H](C)NC(=O)[C@H](Cc2c[nH]c3ccccc23)NC(=O)[C@H](CCC(N)=O)NC(=O)[C@H](CC(C)C)NC(=O)[C@H](Cc2c[nH]c3ccccc23)NC1=O` [compound 15, Ac-M-S-D-C(3)-W-L-Q-W-(D-Ala)-C(3)-P-F-D-CONH2] (Ac-MSDCWLQW[dA]CPFD-NH2; disulfide 4-10) reads more than 100 nM.
`CSCC[C@H](NC(C)=O)C(=O)N[C@@H](CO)C(=O)N[C@@H](CC(=O)O)C(=O)N[C@H]1CSSC[C@@H](C(=O)N[C@H](C)C(=O)N[C@@H](Cc2ccccc2)C(=O)N[C@@H](CC(=O)O)C(N)=O)NC(=O)[C@H](CC(N)=O)NC(=O)[C@H](Cc2c[nH]c3ccccc23)NC(=O)[C@H](CCC(N)=O)NC(=O)[C@H](CC(C)C)NC(=O)[C@H](Cc2c[nH]c3ccccc23)NC1=O` [compound 16, Ac-M-S-D-C(3)-W-L-Q-W-N-C(3)-(D-Ala)-F-D-CONH2] (Ac-MSDCWLQWNC[dA]FD-NH2; disulfide 4-10) had an equilibrium dissociation constant (Kd) of more than 100 nM.
Then `CSCC[C@H](NC(C)=O)C(=O)N[C@@H](CO)C(=O)N[C@@H](CC(=O)O)C(=O)N[C@H]1CSSC[C@@H](C(=O)N2CCC[C@H]2C(=O)N[C@H](C)C(=O)N[C@@H](CC(=O)O)C(N)=O)NC(=O)[C@H](CC(N)=O)NC(=O)[C@H](Cc2c[nH]c3ccccc23)NC(=O)[C@H](CCC(N)=O)NC(=O)[C@H](CC(C)C)NC(=O)[C@H](Cc2c[nH]c3ccccc23)NC1=O` [compound 17, Ac-M-S-D-C(3)-W-L-Q-W-N-C(3)-P-(D-Ala)-D-CONH2] (Ac-MSDCWLQWNCP[dA]D-NH2; disulfide 4-10), with more than 100 nM; and `CSCC[C@H](NC(C)=O)C(=O)N[C@@H](CO)C(=O)N[C@@H](CC(=O)O)C(=O)N[C@H]1CSSC[C@@H](C(=O)N2CCC[C@H]2C(=O)N[C@@H](Cc2ccccc2)C(=O)N[C@H](C)C(N)=O)NC(=O)[C@H](CC(N)=O)NC(=O)[C@H](Cc2c[nH]c3ccccc23)NC(=O)[C@H](CCC(N)=O)NC(=O)[C@H](CC(C)C)NC(=O)[C@H](Cc2c[nH]c3ccccc23)NC1=O` [compound 18, Ac-M-S-D-C(3)-W-L-Q-W-N-C(3)-P-F-(D-Ala)-CONH2] (Ac-MSDCWLQWNCPF[dA]-NH2; disulfide 4-10), with more than 100 nM; and `CSCC[C@H](NC(C)=O)C(=O)N[C@@H](C)C(=O)N[C@@H](CC(=O)O)C(=O)N[C@H]1CSSC[C@@H](C(=O)N2CCC[C@H]2C(=O)N[C@@H](Cc2ccccc2)C(=O)N[C@@H](CC(=O)O)C(N)=O)NC(=O)[C@H](CC(N)=O)NC(=O)[C@H](Cc2c[nH]c3ccccc23)NC(=O)[C@H](CCC(N)=O)NC(=O)[C@H](CC(C)C)NC(=O)[C@H](Cc2c[nH]c3ccccc23)NC1=O` [compound 20, Ac-M-(L-Ala)-D-C(3)-W-L-Q-W-N-C(3)-P-F-D-CONH2] (Ac-MADCWLQWNCPFD-NH2; disulfide 4-10), with more than 100 nM.
For the compound `CSCC[C@H](NC(C)=O)C(=O)N[C@@H](CO)C(=O)N[C@@H](CC(=O)O)C(=O)N[C@H]1CSSC[C@@H](C(=O)N2CCC[C@H]2C(=O)N[C@@H](Cc2ccccc2)C(=O)N[C@@H](CC(=O)O)C(N)=O)NC(=O)[C@H](CC(N)=O)NC(=O)[C@H](Cc2c[nH]c3ccccc23)NC(=O)[C@H](CCC(N)=O)NC(=O)[C@H](CC(C)C)NC(=O)[C@H](C)NC1=O` [compound 22, Ac-M-S-D-C(3)-(L-Ala)-L-Q-W-N-C(3)-P-F-D-CONH2] (Ac-MSDCALQWNCPFD-NH2; disulfide 4-10), the Kd is more than 100 nM.
